Experimental data from patent publication US20190119193A1, “COMPOSITION FOR REGULATING PLANT GROWTH, METHOD FOR TREATING PLANTS THEREWITH, AND ACTIVE INGREDIENT THEREOF” (Ivan Aleksandrovich Starikov, priority 2016, published 2019).

Columns and labels:
Format in all cases: in vivo
Settings in all cases: for Germinative energy: day 3; for Germinative capacity / Number of lateral roots / Sprout height / Taproot length: day 7
[1] = system: tomato seeds (“Volgogradets” variety); assay: Laboratory tests of DMOA and DEOA for tomato seeds
Method: (§1) After that DMOA and DEOA were dissolved in dimethyl sulfoxide to give solutions of 10 g/L concentration, then water was added to give aqueous solutions of DMOA with concentrations of 5.5·10^−5 M, 5.5·10^−6 M, 5.5·10^−7 M, 5.5·10^−8 M, 5.5·10^−9 M and DEOA with concentrations of 4.8·10^−5 M, 4.8·10^−6 M, 4.8·10^−7 M, 4.8·10^−8 M, 4.8·10^−9 M.
(§2) The obtained aqueous solutions of DMOA and DEOA were tested in the Scientific Center of Soil-Ecological Reasearch of the Federal State-Funded Educational Institution of Higher Education “Russian State Agrarian University—Moscow Agricultural Academy named after K. A. Timiryazev” (Moscow, 2015) according to the method described by T. A. Sergeeva (Method of laboratory testing of herbicides, Plant protection, 1963, No. 2, pp. 42-43). The primary laboratory screening of DMOA and DEOA was carried out on the seeds of five different crops: sunflower of “Voronezh 638” variety, soybean of “Vilana” variety, alfalfa of “Vega” variety, cucumber of “Nezhinsky” variety and tomato of “Volgogradets” variety.
(§3) Water was used as a reference.
(§4) A single experiment was carried out in a Petri dish. A circle of filter paper was laid at the bottom of the dish and treated with 5 ml of the work solution selected for the experiment. After that 25 seeds were uniformly laid on the surface of the treated filter paper. The Petri dish was kept at a temperature of 21-23° C. with illumination by fluorescent lamps for 7 days. The fourfold replication of the experiment within a single variant was applied.
(§5) The experiment identified the number and percentage of normally germinated seeds on day 3 (germinative energy) and on day 7 (germinative capacity) after the beginning of the experiment. On day 7 the main biometric parameters were also measured: sprout height (mm), taproot length (mm) and number of lateral roots (pcs).
(§6) The results were processed with the method of variance analysis with the help of STRAZ software in order to get the LSD0.05 (least significant difference between the test results on 5% significance level).

[2] = system: alfalfa seeds (“Vega” variety); assay: Laboratory tests of DMOA and DEOA for alfalfa seeds
Method: as §1, §2, §3, §4, §5, §6

[3] = system: sunflower seeds (“Voronezh 638” variety); assay: Laboratory tests of DMOA and DEOA for sunflower seeds
Method: as §1, §2, §3, §4, §5, §6

[4] = system: soybean seeds (“Vilana” variety); assay: Laboratory tests of DMOA and DEOA for soybean seeds
Method: as §1, §2, §3, §4, §5, §6

CCOC(=O)C=C([O-])C(=O)OCC.[Na+] [DEOA, sodium salt of diethyl ester of oxaloacetic acid]
Germinative energy ([1]; 4.8 · 10^−5 M): 93%
Germinative capacity ([1]; 4.8 · 10^−5 M): 95%
Number of lateral roots ([1]; 4.8 · 10^−5 M): 0.5 ↑ pcs.
Sprout height ([1]; 4.8 · 10^−5 M): 25.3 mm
Taproot length ([1]; 4.8 · 10^−5 M): 80.1 mm
Germinative energy ([1]; 4.8 · 10^−6 M): 75%
Germinative capacity ([1]; 4.8 · 10^−6 M): 80%
Number of lateral roots ([1]; 4.8 · 10^−6 M): 0.2 pcs.
Sprout height ([1]; 4.8 · 10^−6 M): 25.7 mm
Taproot length ([1]; 4.8 · 10^−6 M): 77.7 mm
Germinative energy ([1]; 4.8 · 10^−7 M): 88%
Germinative capacity ([1]; 4.8 · 10^−7 M): 91%
Number of lateral roots ([1]; 4.8 · 10^−7 M): 0.4 pcs.
Sprout height ([1]; 4.8 · 10^−7 M): 26.3 mm
Taproot length ([1]; 4.8 · 10^−7 M): 84.6 ↑ mm
Germinative energy ([1]; 4.8 · 10^−8 M): 74%
Germinative capacity ([1]; 4.8 · 10^−8 M): 76%
Number of lateral roots ([1]; 4.8 · 10^−8 M): 0.2 pcs.
Sprout height ([1]; 4.8 · 10^−8 M): 22.7 mm
Taproot length ([1]; 4.8 · 10^−8 M): 77.9 mm
Germinative energy ([1]; 4.8 · 10^−9 M): 82%
Germinative capacity ([1]; 4.8 · 10^−9 M): 89%
Number of lateral roots ([1]; 4.8 · 10^−9 M): 0.4 pcs.
Sprout height ([1]; 4.8 · 10^−9 M): 21.3 ↓ mm
Taproot length ([1]; 4.8 · 10^−9 M): 77.9 mm
Germinative energy ([2]; 4.8 · 10^−5 M): 93%
Germinative capacity ([2]; 4.8 · 10^−5 M): 97%
Number of lateral roots ([2]; 4.8 · 10^−5 M): 0.1 pcs.
Sprout height ([2]; 4.8 · 10^−5 M): 34.9 ↑↑ mm
Taproot length ([2]; 4.8 · 10^−5 M): 41.9 ↑ mm
Germinative energy ([2]; 4.8 · 10^−6 M): 73%
Germinative capacity ([2]; 4.8 · 10^−6 M): 80%
Number of lateral roots ([2]; 4.8 · 10^−6 M): 0.0 pcs.
Sprout height ([2]; 4.8 · 10^−6 M): 32.5 ↑ mm
Taproot length ([2]; 4.8 · 10^−6 M): 37.5 ↑ mm
Germinative energy ([2]; 4.8 · 10^−7 M): 88%
Germinative capacity ([2]; 4.8 · 10^−7 M): 93%
Number of lateral roots ([2]; 4.8 · 10^−7 M): 0.5 pcs.
Sprout height ([2]; 4.8 · 10^−7 M): 33.5 ↑ mm
Taproot length ([2]; 4.8 · 10^−7 M): 32.2 mm
Germinative energy ([2]; 4.8 · 10^−8 M): 73%
Germinative capacity ([2]; 4.8 · 10^−8 M): 97%
Number of lateral roots ([2]; 4.8 · 10^−8 M): 0.1 pcs.
Sprout height ([2]; 4.8 · 10^−8 M): 32.4 ↑ mm
Taproot length ([2]; 4.8 · 10^−8 M): 42.3 ↑ mm
Germinative energy ([2]; 4.8 · 10^−9 M): 80%
Germinative capacity ([2]; 4.8 · 10^−9 M): 87%
Number of lateral roots ([2]; 4.8 · 10^−9 M): 0.7 ↑ pcs.
Sprout height ([2]; 4.8 · 10^−9 M): 28.5 mm
Taproot length ([2]; 4.8 · 10^−9 M): 34.6 mm
Germinative energy ([3]; 4.8 · 10^−5 M): 87%
Germinative capacity ([3]; 4.8 · 10^−5 M): 93%
Number of lateral roots ([3]; 4.8 · 10^−5 M): 9.6 pcs.
Sprout height ([3]; 4.8 · 10^−5 M): 40.1 ↑↑↑↑↑ mm
Taproot length ([3]; 4.8 · 10^−5 M): 38.4 mm
Germinative energy ([3]; 4.8 · 10^−6 M): 80%
Germinative capacity ([3]; 4.8 · 10^−6 M): 90%
Number of lateral roots ([3]; 4.8 · 10^−6 M): 8.9 pcs.
Sprout height ([3]; 4.8 · 10^−6 M): 29.7 ↑↑ mm
Taproot length ([3]; 4.8 · 10^−6 M): 44.0 mm
Germinative energy ([3]; 4.8 · 10^−7 M): 93 ↑ %
Germinative capacity ([3]; 4.8 · 10^−7 M): 93%
Number of lateral roots ([3]; 4.8 · 10^−7 M): 6.9 pcs.
Sprout height ([3]; 4.8 · 10^−7 M): 29.2 ↑↑ mm
Taproot length ([3]; 4.8 · 10^−7 M): 37.0 mm
Germinative energy ([3]; 4.8 · 10^−8 M): 97 ↑ %
Germinative capacity ([3]; 4.8 · 10^−8 M): 99 ↑ %
Number of lateral roots ([3]; 4.8 · 10^−8 M): 11.2 ↑ pcs.
Sprout height ([3]; 4.8 · 10^−8 M): 27.7 ↑ mm
Taproot length ([3]; 4.8 · 10^−8 M): 56.3 ↑↑ mm
Germinative energy ([3]; 4.8 · 10^−9 M): 81%
Germinative capacity ([3]; 4.8 · 10^−9 M): 87%
Number of lateral roots ([3]; 4.8 · 10^−9 M): 9.5 pcs.
Sprout height ([3]; 4.8 · 10^−9 M): 30.5 ↑↑ mm
Taproot length ([3]; 4.8 · 10^−9 M): 38.3 mm
Germinative energy ([4]; 4.8 · 10^−5 M): 87 ↑ %
Germinative capacity ([4]; 4.8 · 10^−5 M): 93%
Number of lateral roots ([4]; 4.8 · 10^−5 M): 0.3 pcs.
Sprout height ([4]; 4.8 · 10^−5 M): 15.3 mm
Taproot length ([4]; 4.8 · 10^−5 M): 45.3 ↑ mm
Germinative energy ([4]; 4.8 · 10^−6 M): 75%
Germinative capacity ([4]; 4.8 · 10^−6 M): 87%
Number of lateral roots ([4]; 4.8 · 10^−6 M): 0.6 pcs.
Sprout height ([4]; 4.8 · 10^−6 M): 19.0 ↑ mm
Taproot length ([4]; 4.8 · 10^−6 M): 37.7 mm
Germinative energy ([4]; 4.8 · 10^−7 M): 72%
Germinative capacity ([4]; 4.8 · 10^−7 M): 90%
Number of lateral roots ([4]; 4.8 · 10^−7 M): 0.3 pcs.
Sprout height ([4]; 4.8 · 10^−7 M): 14.7 mm
Taproot length ([4]; 4.8 · 10^−7 M): 36.2 mm
Germinative energy ([4]; 4.8 · 10^−8 M): 73%
Germinative capacity ([4]; 4.8 · 10^−8 M): 93%
Number of lateral roots ([4]; 4.8 · 10^−8 M): 0.4 pcs.
Sprout height ([4]; 4.8 · 10^−8 M): 14.3 mm
Taproot length ([4]; 4.8 · 10^−8 M): 33.6 mm
Germinative energy ([4]; 4.8 · 10^−9 M): 80%
Germinative capacity ([4]; 4.8 · 10^−9 M): 99 ↑ %
Number of lateral roots ([4]; 4.8 · 10^−9 M): 1.2 ↑↑ pcs.
Sprout height ([4]; 4.8 · 10^−9 M): 17.1 mm
Taproot length ([4]; 4.8 · 10^−9 M): 46.5 ↑ mm
